According to patent US8071768B2, “Alkylquinoline and alkylquinazoline kinase modulators” (Janssen Pharmaceutica, N.V., priority 2005, dated 2011):

Biological target: T1, TrkB (Homo sapiens, UniProt Q16620)
T1 construct: purchased Upstate 14-507M
Assay: Trk B Fluorescence Polarization Kinase Assay
Assay type: biochemical
Conditions: uncertainty ±10%
Protocol: Trk B Fluorescence Polarization Kinase Assay (TrkB IC50 Data)
The compounds of the present invention are also specific inhibitors of TrkB. Selection of preferred compounds of Formula I for use as TrkB inhibitors was performed in the following manner. The TrkB assay utilized the fluorescein-labeled phosphopeptide and the anti-phosphotyrosine antibody included in the Panvera Phospho-Tyrosine Kinase Kit (Green) supplied by Invitrogen. When TrkB phosphorylated poly Glu4Tyr, the fluorescein-labeled phosphopeptide was displaced from the anti-phosphotyrosine antibody by the phosphorylated poly Glu4Tyr, thus decreasing the FP value. The TrkB kinase reaction was incubated at room temperature for 30 minutes under the following conditions: 50 nM TrkB (Upstate, catalog # 14-507M), 20 ug/mL poly Glu4Tyr, 150 uM ATP, 5 mM MgCl2, 1% compound in DMSO. The kinase reaction was stopped with the addition of EDTA. The fluorescein-labeled phosphopeptide and the anti-phosphotyrosine antibody were added and incubated for 30 minutes at room temperature. Data points were an average of triplicate samples. Inhibition and IC50 data analysis were done with GraphPad Prism using a non-linear regression fit with a multiparamater, sigmoidal dose-response (variable slope) equation.

T1 sequence (Q16620 32-822): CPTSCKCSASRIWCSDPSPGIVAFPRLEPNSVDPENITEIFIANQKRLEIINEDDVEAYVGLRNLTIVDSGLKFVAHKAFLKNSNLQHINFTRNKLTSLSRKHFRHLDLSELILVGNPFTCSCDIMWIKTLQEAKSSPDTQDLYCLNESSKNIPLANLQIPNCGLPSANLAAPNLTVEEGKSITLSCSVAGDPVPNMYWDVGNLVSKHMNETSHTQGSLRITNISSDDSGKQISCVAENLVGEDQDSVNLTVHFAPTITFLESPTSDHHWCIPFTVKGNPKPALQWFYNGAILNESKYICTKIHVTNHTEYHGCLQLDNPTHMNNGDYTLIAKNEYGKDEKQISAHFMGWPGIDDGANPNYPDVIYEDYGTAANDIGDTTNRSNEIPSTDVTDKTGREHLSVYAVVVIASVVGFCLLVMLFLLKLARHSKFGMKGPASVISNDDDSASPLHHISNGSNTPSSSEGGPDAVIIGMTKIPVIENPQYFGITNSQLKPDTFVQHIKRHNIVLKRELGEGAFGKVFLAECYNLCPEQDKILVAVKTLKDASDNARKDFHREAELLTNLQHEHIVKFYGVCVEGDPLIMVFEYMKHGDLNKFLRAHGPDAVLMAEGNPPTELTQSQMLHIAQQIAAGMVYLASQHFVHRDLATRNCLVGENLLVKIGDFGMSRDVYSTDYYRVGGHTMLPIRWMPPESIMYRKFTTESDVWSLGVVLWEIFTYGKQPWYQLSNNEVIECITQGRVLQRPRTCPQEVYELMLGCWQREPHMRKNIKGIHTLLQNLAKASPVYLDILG

An IC50 of 2 µM was found for `CS(=O)(=O)NCCCOc1ccc2c(C3CCN(C(=O)Nc4ccc(N5CCCC5)nc4)CC3)ncnc2c1` [Compound 86, 4-[7-(3-Methanesulfonylamino-propoxy)-quinazolin-4-yl]-piperidine-1-carboxylic acid (6-pyrrolidin-1-yl-pyridin-3-yl)-amide] in this work.

An IC50 of 4 µM was found for `COc1cc2ncnc(C3CCN(C(=O)Nc4ccc(OC(F)F)cc4)CC3)c2cc1OC` [Compound 51, 4-(6,7-Dimethoxy-quinazolin-4-yl)-piperidine-1-carboxylic acid (4-difluoromethoxy-phenyl)-amide] in this work.

With `CN(C)c1c(NCCCOc2ccc3c(C4CCN(C(=O)Nc5ccc(N6CCCC6)nc5)CC4)ncnc3c2)c(=O)c1=O` [Compound 111, 4-{7-[3-(2-Dimethylamino-3,4-dioxo-cyclobut-1-enylamino)-propoxy]-quinazolin-4-yl}-piperidine-1-carboxylic acid (6-pyrrolidin-1-yl-pyridin-3-yl)-amide] the IC50 was > 20 µM.

An IC50 of 1.2 µM was found for `CCC(C)c1ccc(NC(=O)N2CCC(c3ncnc4cc(OC)c(OC)cc34)CC2)cc1` (centres unmarked) [Compound 52, 4-(6,7-Dimethoxy-quinazolin-4-yl)-piperidine-1-carboxylic acid (4-sec-butyl-phenyl)-amide] in this work.

An IC50 of 28.7 µM was found for `COc1cc2ncnc(C3CCN(C(=O)NC4CCCCC4)CC3)c2cc1OC` [Compound 42, 4-(6,7-Dimethoxy-quinazolin-4-yl)-piperidine-1-carboxylic acid cyclohexylamide] in this work.

For `O=C(Nc1ccc(N2CCOCC2)cc1)N1CCC(c2ncnc3cc(OCCCN4CCOCC4)ccc23)CC1` [Compound 133, 4-[7-(3-Morpholin-4-yl-propoxy)-quinazolin-4-yl]-piperidine-1-carboxylic acid (4-morpholin-4-yl-phenyl)-amide], the IC50 was > 42 µM.

An IC50 of 16.3 µM was found for `CN1CCN(CCCOc2ccc3c(C4CCN(C(=S)Nc5ccc(N6CCOCC6)nc5)CC4)ncnc3c2)CC1` [Compound 106, 4-{7-[3-(4-Methyl-piperazin-1-yl)-propoxy]-quinazolin-4-yl}-piperidine-1-carbothioic acid (6-morpholin-4-yl-pyridin-3-yl)-amide] in this work.

An IC50 of 2.4 µM was found for `CC(C)Oc1ccc(NC(=O)N2CCC(c3ncnc4ccccc34)CC2)cc1` [Compound 8, 4-Quinazolin-4-yl-piperidine-1-carboxylic acid (4-isopropoxy-phenyl)-amide] in this work.

An IC50 of 0.4 µM was found for `COc1ccc2c(C3CCN(C(=O)Nc4ccc(OC(C)C)cc4)CC3)ncnc2c1` [Compound 31, 4-(7-Methoxy-quinazolin-4-yl)-piperidine-1-carboxylic acid (4-isopropoxy-phenyl)-amide] in this work.

An IC50 of 0.8 µM was found for `O=C1CCCN1CCOc1ccc2c(C3CCN(C(=O)Nc4cnc(N5CCCC5)nc4)CC3)ncnc2c1` [Compound 84, 4-{7-[2-(2-Oxo-pyrrolidin-1-yl)-ethoxy]-quinazolin-4-yl}-piperidine-1-carboxylic acid (2-pyrrolidin-1-yl-pyrimidin-5-yl)-amide] in this work.

With `CN1CCN(CCOc2ccc3c(C4CCN(C(=O)Nc5ccc(N6CCOCC6)cc5)CC4)ncnc3c2)CC1` [Compound 156, 4-{7-[2-(4-Methyl-piperazin-1-yl)-ethoxy]-quinazolin-4-yl}-piperidine-1-carboxylic acid (4-morpholin-4-yl-phenyl)-amide] the IC50 was > 21 µM.

For `CCN1CCN(CCCOc2ccc3c(C4CCN(C(=O)Nc5ccc(N6CCOCC6)cc5)CC4)ncnc3c2)CC1` [Compound 115, 4-{7-[3-(4-Ethyl-piperazin-1-yl)-propoxy]-quinazolin-4-yl}-piperidine-1-carboxylic acid (4-morpholin-4-yl-phenyl)-amide], the IC50 was > 20 µM.

In the case of `O=C(Nc1ccc(N2CCOCC2)cc1)N1CCC(c2ncnc3cc(N4CCC[C@@H]4CO)ccc23)CC1` [Compound 132, (R)-4-[7-(2-Hydroxymethyl-pyrrolidin-1-yl)-quinazolin-4-yl]-piperidine-1-carboxylic acid (4-morpholin-4-yl-phenyl)-amide], the IC50 is reported as > 42 µM.

An IC50 of 37.8 µM was found for `COc1cc2ncnc(C3CCN(C(=O)Nc4ccc(C5CCNCC5)cc4)CC3)c2cc1OC` [Compound 64, 4-(6,7-Dimethoxy-quinazolin-4-yl)-piperidine-1-carboxylic acid (4-piperidin-4-yl-phenyl)-amide] in this work.

An IC50 of 7.26 µM was found for `CN(C)[C@@H]1CCN(c2ccc3c(C4CCN(C(=O)Nc5ccc(N6CCCC6)cc5)CC4)ncnc3c2)C1` [Compound 149, (R)-4-[7-(3-Dimethylamino-pyrrolidin-1-yl)-quinazolin-4-yl]-piperidine-1-carboxylic acid (4-pyrrolidin-1-yl-phenyl)-amide] in this work.

An IC50 of 6.2 µM was found for `COc1cc2ncnc(C3CCN(C(=O)NC4CCC(C(C)(C)C)CC4)CC3)c2cc1OC` (centres unmarked) [Compound 54, 4-(6,7-Dimethoxy-quinazolin-4-yl)-piperidine-1-carboxylic acid (4-tert-butyl-cyclohexyl)-amide] in this work.

In the case of `O=C(Nc1ccc(N2CCOCC2)cc1)N1CCC(c2ncnc3cc(N4CCNCC4)ccc23)CC1` [Compound 140, 4-(7-piperazin-1-yl-quinazolin-4-yl)-piperidine-1-carboxylic acid (4-morpholin-4-yl-phenyl)-amide], the IC50 is reported as > 42 µM.

An IC50 of 0.8 µM was found for `CC(C)Oc1ccc(NC(=O)N2CCC(c3ncnc4ccc(C#CCN5CCOCC5)cc34)CC2)cc1` [Compound 15, 4-[6-(3-Morpholin-4-yl-prop-1-ynyl)-quinazolin-4-yl]-piperidine-1-carboxylic acid (4-isopropoxy-phenyl)-amide] in this work.

An IC50 of 17.7 µM was found for `COc1cc2ncnc(C3CCN(C(=O)Nc4ccc(CO)cc4)CC3)c2cc1OC` [Compound 22, 4-(6,7-Dimethoxy-quinazolin-4-yl)-piperidine-1-carboxylic acid (4-hydroxymethyl-phenyl)-amide] in this work.

In the case of `O=C(Nc1ccc(N2CCOCC2)cc1)N1CCC(c2ncnc3cc(N4CCN(CCO)CC4)ccc23)CC1` [Compound 137, 4-{7-[4-(2-Hydroxy-ethyl)-piperazin-1-yl]-quinazolin-4-yl}-piperidine-1-carboxylic acid (4-morpholin-4-yl-phenyl)-amide], the IC50 is reported as > 42 µM.

An IC50 of 3.11 µM was found for `O=C(Nc1ccc(N2CCCC2)cc1)N1CCC(c2ncnc3cc(N4CC[C@H](O)C4)ccc23)CC1` [Compound 129, (S)-4-[7-(3-Hydroxy-pyrrolidin-1-yl)-quinazolin-4-yl]-piperidine-1-carboxylic acid (4-pyrrolidin-1-yl-phenyl)-amide] in this work.

For `O=C(Nc1ccc(N2CCOCC2)cc1)N1CCC(c2ncnc3cc(OCCCN4CCNCC4)ccc23)CC1` [Compound 123, 4-[7-(3-piperazin-1-yl-propoxy)-quinazolin-4-yl]-piperidine-1-carboxylic acid (4-morpholin-4-yl-phenyl)-amide], the IC50 was > 20 µM.

An IC50 of 22.3 µM was found for `COc1cc2ncnc(C3CCN(C(=O)Nc4ccc(Cl)cc4)CC3)c2cc1OC` [Compound 49, 4-(6,7-Dimethoxy-quinazolin-4-yl)-piperidine-1-carboxylic acid (4-chloro-phenyl)-amide] in this work.

An IC50 of 0.1 µM was found for `COc1cc2ncnc(C3CCN(C(=O)Cc4ccc(C(C)C)cc4)CC3)c2cc1OC` [Compound 28, 1-[4-(6,7-Dimethoxy-quinazolin-4-yl)-piperidin-1-yl]-2-(4-isopropyl-phenyl)-ethanone] in this work.

An IC50 of 0.8 µM was found for `CC(C)Oc1ccc(NC(=O)N2CCC(c3ccnc4ccccc34)CC2)cc1` [Compound 6, 4-Quinolin-4-yl-piperidine-1-carboxylic acid (4-isopropoxy-phenyl)-amide] in this work.

An IC50 of 35 µM was found for `COc1cc2ncnc(C3CCN(C(=O)Nc4ccc5ncsc5c4)CC3)c2cc1OC` [Compound 24, 4-(6,7-Dimethoxy-quinazolin-4-yl)-piperidine-1-carboxylic acid benzothiazol-6-ylamide] in this work.

With `O=C(Nc1ccc(N2CCOCC2)cc1)N1CCC(c2ncnc3cc(OCCN4CCC[C@H]4CO)ccc23)CC1` [Compound 153, (S)-4-{7-[2-(2-Hydroxymethyl-pyrrolidin-1-yl)-ethoxy]-quinazolin-4-yl}-piperidine-1-carboxylic acid (4-morpholin-4-yl-phenyl)-amide] the IC50 was > 42 µM.

`CC(=O)N1CC[C@@H](Oc2ccc3c(C4CCN(C(=O)Nc5ccc(N6CCCC6)cc5)CC4)ncnc3c2)C1` [Compound 154, (R)-4-[7-(1-Acetyl-pyrrolidin-3-yloxy)-quinazolin-4-yl]-piperidine-1-carboxylic acid (4-pyrrolidin-1-yl-phenyl)-amide] was tested, and the IC50 was > 42 µM.

An IC50 of 11.7 µM was found for `COc1ccc(NC(=O)N2CCC(c3ncnc4cc(OC)c(OC)cc34)CC2)cc1` [Compound 41, 4-(6,7-Dimethoxy-quinazolin-4-yl)-piperidine-1-carboxylic acid (4-methoxy-phenyl)-amide] in this work.

With `O=C(Nc1ccc(N2CCOCC2)cc1)N1CCC(c2ncnc3cc(OCCCO)ccc23)CC1` [Compound 77, 4-[7-(3-Hydroxy-propoxy)-quinazolin-4-yl]-piperidine-1-carboxylic acid (4-morpholin-4-yl-phenyl)-amide] the IC50 was > 20 µM.

An IC50 of 7.6 µM was found for `CN(C)C(=O)N1CCN(c2ccc3c(C4CCN(C(=O)Nc5ccc(N6CCOCC6)cc5)CC4)ncnc3c2)CC1` [Compound 143, 4-{4-[1-(4-Morpholin-4-yl-phenylcarbamoyl)-piperidin-4-yl]-quinazolin-7-yl}-piperazine-1-carboxylic acid dimethylamide] in this work.

An IC50 of 0.5 µM was found for `COc1cc2ncnc(C3CCN(C(=O)Nc4ccc(OC(F)(F)F)cc4)CC3)c2cc1OC` [Compound 50, 4-(6,7-Dimethoxy-quinazolin-4-yl)-piperidine-1-carboxylic acid (4-trifluoromethoxy-phenyl)-amide] in this work.
